Legend:
[1] = system: GluR2o / GluR3o expressed in insect cells; conditions: cited from earlier work; for Affinity for GluR2o higher than for GluR3o: receptors expressed in insect cells
[2] = target: GluR2o S1S2 domain (Rattus norvegicus, UniProt P19491, DEL528-650/S652T/V651G); experiment: Inhibition of [3H]AMPA binding to GluR2o S1S2; conditions: GluR2 S1S2 vs GluR3 S1S2, inhibition of [3H]AMPA binding

| Compound | Affinity for GluR2o higher than for GluR3o [1] [fold] | Difference in affinity (IC50) between GluR2 S1S2 and GluR3 S1S2 [2] | Affinity of homomeric GluR2 greater than GluR3 ([1]; homomeric receptors, same expression system (insect cells)) |
| --- | --- | --- | --- |
| N[C@@H](Cn1cc(F)c(=O)[nH]c1=O)C(=O)O [fluorowillardiine] | 10 | – | – |
| N[C@@H](Cn1ccc(=O)[nH]c1=O)C(=O)O [willardiine] | 10 | – | – |
| NC(Cc1onc(O)c1Cl)C(=O)O (stereo not shown) [Cl-HIBO, 4-chlorohomoibotenic acid] | – | ten-fold | approximately 100 fold |
